Measured values: patent US11014917B2, “5-fluoro-c-(aryl or heterocyclyl)-glycoside derivatives useful as dual SGLT1 / SGLT2 modulators” (Janssen Pharmaceutica NV, priority 2017, dated 2021)

What was measured:
[1] = target: T1, human SGLT1 (Homo sapiens, UniProt P13866); experiment: SGLT1 assay: Na-dependent 14C-AMG uptake in CHO-K1 cells stably expressing human SGLT1; type: cell-based; conditions: for IC50: average if tested more than once; for SGLT1 %-inhibition / inhibition at 0.3 µM: @ 0.3 μM
T1 construct: expressed in transfected cells
T1 sequence (P13866 1-664): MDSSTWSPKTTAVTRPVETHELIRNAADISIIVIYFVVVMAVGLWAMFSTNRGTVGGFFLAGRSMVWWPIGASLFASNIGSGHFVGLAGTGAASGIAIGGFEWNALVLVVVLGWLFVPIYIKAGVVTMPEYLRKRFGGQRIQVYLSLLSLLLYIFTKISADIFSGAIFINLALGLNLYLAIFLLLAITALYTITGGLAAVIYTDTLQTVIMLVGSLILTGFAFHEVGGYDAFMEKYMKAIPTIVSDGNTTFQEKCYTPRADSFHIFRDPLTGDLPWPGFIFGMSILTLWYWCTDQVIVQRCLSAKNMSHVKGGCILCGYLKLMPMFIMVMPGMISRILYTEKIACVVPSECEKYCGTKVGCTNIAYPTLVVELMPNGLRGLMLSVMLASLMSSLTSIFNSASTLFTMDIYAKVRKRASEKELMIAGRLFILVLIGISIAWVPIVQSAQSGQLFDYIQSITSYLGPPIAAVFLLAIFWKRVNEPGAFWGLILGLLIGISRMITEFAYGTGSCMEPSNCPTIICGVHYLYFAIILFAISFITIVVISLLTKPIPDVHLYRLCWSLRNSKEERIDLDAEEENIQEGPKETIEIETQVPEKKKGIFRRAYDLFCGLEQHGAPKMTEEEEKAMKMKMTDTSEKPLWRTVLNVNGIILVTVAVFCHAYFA
Method: (§1) The ability of the compounds of formula (I) of the present invention to treat an SGLT-mediated condition was determined using the following procedures:
(§2) SGLT1 and SGLT2 were cloned in form of cDNA from human small intestine (Genbank M24847), and from human kidney (Genbank M95549), respectively. Subsequently, each full cDNA was subcloned into pcDNA with each construct's integrity verified through follow-on sequencing. To generate CHO-K1 cells that stably express human SGLT1 or human SGLT2, CHO-K1 cells were transfected using DMRIE-C reagent (Life Technologies, Gaithersburg, Md.). Transfected cells were then selected in the presence of 500 μg/ml of the Geneticin (G418 Cellgro Catalog No. 30234-Cl)
(§3) Individual clones were then characterized using the following cell-based assay for sodium-dependent glucose transport:
(§4) Inhibition of SGLT1 and SGLT2 activity was assessed in CHO K1 cells stably expressing either human SGLT1 or SGLT2, using the SGLT specific glucose analog methyl-glucopyranoside (Sigma Catalog No. M-9376). Cells were plated (45,000 cells/well) in white wall 96-well plates (COSTAR, Cat #3903) for 24 hours in growth medium, then a final concentration of 10 mM Na-Butyrate (ALDRICH Cat #30341-0) was added. The cells were incubated for 24 hours. On the day of the assay, cells were rinsed and treated with test compounds (at concentrations of 0.001 μM to 10 μM) in assay buffer (50 mM HEPES, 20 mM Tris base, 5 mM KCl, 1 mM MgCl2, 1 mM CaCl2 and 137 mM NaCl, pH 7.4) for 10 minutes. Cells were then incubated with ^14C-a-methyl-d-glucopyranoside (AMG, Amersham Catalog No. CFB 76), using 0.07 μCi per well in 500 μM AMG final concentration. The cells were incubated for 2 hours at 37° C. with 5% CO2 and washed two times with ice-cold Phosphate Buffer Solution (Cellgro Catalog No. 21030-CV). The cells were then solubilized by adding 60 μl of MICROSCINT™20 and the Na-dependent ^14C-AMG uptake was quantified by measuring radioactivity. Plates were counted in a TopCount (Packard, Meriden, Conn.)
(§5) Representative compounds of the present invention were tested according to the procedures as described in Biological Example 1 and 2 above, with results as listed in Table 5, below. Results are reported as the %-inhibition or IC50 value. Variability for the functional assay was typically within 20%.

[2] = target: T2, human SGLT2 (Homo sapiens, UniProt P31639); experiment: SGLT2 assay: Na-dependent 14C-AMG uptake in CHO-K1 cells stably expressing human SGLT2; type: cell-based; conditions: for IC50: average if tested more than once; for SGLT2 %-inhibition: @ 0.3 μM
T2 construct: expressed in transfected cells
T2 sequence (P31639 1-672): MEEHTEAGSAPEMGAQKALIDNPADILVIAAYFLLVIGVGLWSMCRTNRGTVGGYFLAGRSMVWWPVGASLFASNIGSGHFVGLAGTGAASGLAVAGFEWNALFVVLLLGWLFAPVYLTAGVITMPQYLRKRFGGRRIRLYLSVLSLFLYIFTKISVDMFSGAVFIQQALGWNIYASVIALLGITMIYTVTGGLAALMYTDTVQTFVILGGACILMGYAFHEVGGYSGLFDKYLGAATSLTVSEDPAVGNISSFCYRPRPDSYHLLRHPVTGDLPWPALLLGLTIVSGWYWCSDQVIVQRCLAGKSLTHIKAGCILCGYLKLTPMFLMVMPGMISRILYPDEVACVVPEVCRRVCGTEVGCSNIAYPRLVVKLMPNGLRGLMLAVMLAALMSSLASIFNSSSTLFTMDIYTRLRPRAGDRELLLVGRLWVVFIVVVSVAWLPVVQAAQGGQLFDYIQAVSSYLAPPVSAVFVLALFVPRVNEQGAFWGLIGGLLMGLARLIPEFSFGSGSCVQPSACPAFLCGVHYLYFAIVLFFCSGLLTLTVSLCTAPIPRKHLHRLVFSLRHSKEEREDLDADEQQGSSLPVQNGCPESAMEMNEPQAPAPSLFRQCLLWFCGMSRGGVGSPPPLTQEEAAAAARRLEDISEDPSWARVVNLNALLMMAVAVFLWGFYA
Method: as §1, §2, §3, §4, §5

| Structure (SMILES) | IC50 [1] [nM] | IC50 [2] [nM] | SGLT1 %-inhibition [1] [% @ 0.3 μM] | SGLT2 %-inhibition [2] [% @ 0.3 μM] | inhibition at 0.3 µM [1] [%] |
| --- | --- | --- | --- | --- | --- |
| Cc1cc(O)c([C@@H]2O[C@H](C)[C@@H](F)[C@H](O)[C@H]2O)cc1Cc1cc2ccccc2s1 [Compound 16, (2S,3R,4R,5S,6R)-2-(5-(benzo[b]thiophen-2-ylmethyl)-2-hydroxy-4-methylphenyl)-5-fluoro-6-methyl-tetrahydro-2H-pyran-3,4-diol] | 111 | 29 |  |  |  |
| COc1cc(C)c(Cc2cc3ccccc3s2)cc1[C@@H]1O[C@H](CO)[C@@H](F)[C@H](O)[C@H]1O [Compound 18] | 68 | 18 |  |  |  |
| COC[C@H]1O[C@@H](c2cc(Cc3cc4ccccc4s3)c(C)cc2O)[C@H](O)[C@@H](O)[C@@H]1F [Compound 19] |  |  | 47.6 | 68.1 |  |
| COc1cc(Cl)c([C@@H]2O[C@H](CO)[C@@H](F)[C@H](O)[C@H]2O)cc1Cc1cc2ccccc2s1 [Compound 21] | 313 | 112 |  |  |  |
| COc1cc(O)c([C@@H]2O[C@H](CC#N)[C@@H](F)[C@H](O)[C@H]2O)cc1Cc1cc2ccccc2s1 [Compound 22] |  | 241 |  |  | 62.7 |
| Cc1cc(O)c([C@@H]2O[C@H](CC#N)[C@@H](F)[C@H](O)[C@H]2O)cc1Cc1cc2ccccc2s1 [Compound 23] |  | 69 |  |  | 65.2 |
| COc1cc(Cl)c([C@@H]2O[C@H](CC#N)[C@@H](F)[C@H](O)[C@H]2O)cc1Cc1cc2ccccc2s1 [Compound 26] | 847 | 982 |  |  |  |
| COc1cc(CO)c([C@@H]2O[C@H](CO)[C@@H](F)[C@H](O)[C@H]2O)cc1Cc1cc2ccccc2s1 [Compound 34] |  |  | 38.6 | 27.6 |  |
| Cc1cc(O)c([C@@H]2O[C@H](C(C)(C)O)[C@@H](F)[C@H](O)[C@H]2O)cc1Cc1cc2ccccc2s1 [Compound 39] | 381 | 123 |  |  |  |
| Cc1cc(CO)c([C@@H]2O[C@H](CO)[C@@H](F)[C@H](O)[C@H]2O)cc1Cc1cc2ccccc2s1 [Compound 42] | 98 | 10 |  |  |  |
| OC[C@H]1O[C@@H](c2cc3c(c(Cc4ccc5c(c4)OCCO5)c2)OCC3)[C@H](O)[C@@H](O)[C@@H]1F [Compound 54] | 69 | 11 |  |  |  |
| OC[C@H]1O[C@@H](c2cc3c(c(Cc4ccc5c(c4)CCCO5)c2)OCC3)[C@H](O)[C@@H](O)[C@@H]1F [Compound 56] | 523 | 12 |  |  |  |
| OC[C@H]1O[C@@H](c2cc(Cc3cc4ccccc4s3)c3c(c2O)CCO3)[C@H](O)[C@@H](O)[C@@H]1F [Compound 59] | 31 | 9 |  |  |  |
| OC[C@H]1O[C@@H](c2cc(Cc3ccc4c(c3)OCCO4)c3c(c2O)CCO3)[C@H](O)[C@@H](O)[C@@H]1F [Compound 61, (2S,3R,4R,5S,6R)-2-(7-((2,3-dihydrobenzo[b][1,4]dioxin-6-yl)methyl)-4-hydroxy-2,3-dihydrobenzofuran-5-yl)-5-fluoro-6-(hydroxymethyl)tetrahydro-2H-pyran-3,4-diol] | 14 | 3 |  |  |  |
| CCc1ccc(Cc2cc([C@@H]3O[C@H](CO)[C@@H](F)[C@H](O)[C@H]3O)c(O)c3c2OCC3)cc1 [Compound 62] | 48 | 4 |  |  |  |
| CCOc1ccc(Cc2cc([C@@H]3O[C@H](CO)[C@@H](F)[C@H](O)[C@H]3O)c(O)c3c2OCC3)cc1 [Compound 63] | 122 | 4 |  |  |  |
| COc1c([C@@H]2O[C@H](CO)[C@@H](F)[C@H](O)[C@H]2O)cc(Cc2ccc3c(c2)OCCO3)c2c1CCO2 [Compound 65, (2S,3R,4R,5S,6R)-2-(7-((2,3-dihydrobenzo[b][1,4]dioxin-6-yl)methyl)-4-methoxy-2,3-dihydrobenzofuran-5-yl)-5-fluoro-6-(hydroxymethyl)tetrahydro-2H-pyran-3,4-diol] | 43 | 9 |  |  |  |
| Cc1c(Cc2cc3ccccc3s2)cc([C@@H]2O[C@H](CO)[C@@H](F)[C@H](O)[C@H]2O)c2c1CCO2 [Compound 68] | 55 | 21 |  |  |  |

Now from value to compound:

| IC50 [1] [nM] | IC50 [2] [nM] | SGLT1 %-inhibition [1] [% @ 0.3 μM] | SGLT2 %-inhibition [2] [% @ 0.3 μM] | inhibition at 0.3 µM [1] [%] | Structure (SMILES) |
| --- | --- | --- | --- | --- | --- |
| 114 | 402 |  |  |  | Cc1cc(O)c([C@@H]2O[C@H](CF)[C@@H](F)[C@H](O)[C@H]2O)cc1Cc1cc2ccccc2s1 [Compound 20, (2S,3R,4R,5S,6R)-2-(5-(benzo[b]thiophen-2-ylmethyl)-2-hydroxy-4-methylphenyl)-5-fluoro-6-(fluoromethyl)-tetrahydro-2H-pyran-3,4-diol] |
| 977 | 332 |  |  |  | Cc1cc(O)c([C@@H]2O[C@H](CN)[C@@H](F)[C@H](O)[C@H]2O)cc1Cc1cc2ccccc2s1 [Compound 24] |
| 13 | 62 |  |  |  | OC[C@H]1O[C@@H](c2cc(Cc3cc4ccccc4s3)c(C3CC3)cc2O)[C@H](O)[C@@H](O)[C@@H]1F [Compound 29] |
| 9 | 19 |  |  |  | CCc1cc(O)c([C@@H]2O[C@H](CO)[C@@H](F)[C@H](O)[C@H]2O)cc1Cc1cc2ccccc2s1 [Compound 31] |
| 156 | 36 |  |  |  | CCOC(=O)N1CCc2sc(Cc3cc([C@@H]4O[C@H](CO)[C@@H](F)[C@H](O)[C@H]4O)c(O)cc3C)cc2C1 [Compound 64] |
| 40 | 14 |  |  |  | Cc1cc(O)c([C@@H]2O[C@H](CO)[C@@H](F)[C@H](O)[C@H]2O)cc1Cc1cc2c(s1)CCN(C(=O)N1CCCC1)C2 [Compound 66, (2-(5-((2S,3R,4R,5S,6R)-5-fluoro-3,4-dihydroxy-6-(hydroxymethyl)tetrahydro-2H-pyran-2-yl)-4-hydroxy-2-methylbenzyl)-6,7-dihydrothieno[3,2-c]pyridin-5(4H)-yl)(pyrrolidin-1-yl)methanone] |
|  |  | 64.9 | 57.5 |  | Cc1cc(O)c([C@@H]2O[C@H](CO)[C@@H](F)[C@H](O)[C@H]2O)cc1Cc1cc2c(s1)CCN(C(=O)N1CCOCC1)C2 [Compound 67] |
|  |  | 20.4 | 60.3 |  | COc1cc(C)c(Cc2cc3c(s2)CCN(C(=O)N2CCOCC2)C3)cc1[C@@H]1O[C@H](CO)[C@@H](F)[C@H](O)[C@H]1O [Compound 69] |
| 100 | 162 |  |  |  | O=C(N1CCCC1)N1CCc2sc(Cc3cc([C@@H]4O[C@H](CO)[C@@H](F)[C@H](O)[C@H]4O)cc4c3OCC4)cc2C1 [Compound 70] |
| 240 | 48 |  |  |  | COC(=O)N1CCc2sc(Cc3cc([C@@H]4O[C@H](CO)[C@@H](F)[C@H](O)[C@H]4O)c(O)cc3Cl)cc2C1 [Compound 73] |
